1 compound from ChEMBL document CHEMBL4118154, “Discovery of evocalcet, a next-generation calcium-sensing receptor agonist for the treatment of hyperparathyroidism” (Bioorg Med Chem Lett, 2018) can be followed below.

Molecules are shown by their SMILES.

In this data set the target is CYP2E1 (Homo sapiens, UniProt P05181). Description: Inhibition of CYP2E1 (unknown origin). Type of data set: ADME.
Sequence of CYP2E1 (P05181 whole entry): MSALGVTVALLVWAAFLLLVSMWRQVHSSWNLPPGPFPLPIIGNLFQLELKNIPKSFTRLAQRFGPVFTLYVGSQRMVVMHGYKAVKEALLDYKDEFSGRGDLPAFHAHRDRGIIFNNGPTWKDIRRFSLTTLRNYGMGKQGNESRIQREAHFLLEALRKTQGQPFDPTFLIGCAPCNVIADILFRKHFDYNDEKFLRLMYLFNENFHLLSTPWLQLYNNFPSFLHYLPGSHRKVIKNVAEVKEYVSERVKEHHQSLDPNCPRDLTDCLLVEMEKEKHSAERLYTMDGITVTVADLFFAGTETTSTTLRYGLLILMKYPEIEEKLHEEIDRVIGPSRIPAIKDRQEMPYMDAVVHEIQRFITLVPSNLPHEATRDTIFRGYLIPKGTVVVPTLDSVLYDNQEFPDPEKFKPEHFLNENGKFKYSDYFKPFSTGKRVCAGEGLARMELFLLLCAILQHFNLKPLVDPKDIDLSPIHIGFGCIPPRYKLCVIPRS

Usually IC50 stands for the concentration at which inhibition is half-maximal. As for `C[C@@H](N[C@H]1CCN(c2ccc(CC(=O)O)cc2)C1)c1cccc2ccccc12.Cl.Cl`, the IC50 was above 50 µM.
